Measurements as given in PubChem BioAssay (NCI).
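A five-concentration, 48-hour dose response in 96-well plates underlies each endpoint, interpolated linearly between surrounding concentrations. GI50 = concentration required for 50% inhibition of growth. TGI: concentration producing complete growth inhibition.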

Tests used:
Test in all cases: NCI anticancer screen, dose series, 48 h
HOP-62 NSCLC = tested on: HOP-62 NSCLC
SW-620 colon = tested on: SW-620 colon
CCRF-CEM leukemia = tested on: CCRF-CEM leukemia
MOLT-4 leukemia = tested on: MOLT-4 leukemia
NCI-H23 lung = tested on: NCI-H23 lung
EKVX NSCLC = tested on: EKVX NSCLC
HCT-15 colon = tested on: HCT-15 colon
TK-10 renal = tested on: TK-10 renal
PC-3 prostate = tested on: PC-3 prostate
SF-295 CNS = tested on: SF-295 CNS
A498 renal = tested on: A498 renal
SN12C renal = tested on: SN12C renal
NCI-H226 lung = tested on: NCI-H226 lung
HL-60(TB) leukemia = tested on: HL-60(TB) leukemia
MCF7 breast = tested on: MCF7 breast
MALME-3M melanoma = tested on: MALME-3M melanoma
BT-549 breast = tested on: BT-549 breast
HOP-92 NSCLC = tested on: HOP-92 NSCLC
HS 578T breast = tested on: HS 578T breast
KM12 colon = tested on: KM12 colon
UO-31 renal = tested on: UO-31 renal
HCC-2998 colon = tested on: HCC-2998 colon
SK-MEL-28 melanoma = tested on: SK-MEL-28 melanoma
OVCAR-4 ovarian = tested on: OVCAR-4 ovarian
LOX IMVI melanoma = tested on: LOX IMVI melanoma
786-0 renal = tested on: 786-0 renal
HCT-116 colon = tested on: HCT-116 colon
NCI/ADR-RES ovarian = tested on: NCI/ADR-RES ovarian
SF-268 CNS = tested on: SF-268 CNS
A549 NSCLC = tested on: A549 NSCLC
K-562 leukemia = tested on: K-562 leukemia
RXF 393 renal = tested on: RXF 393 renal
MDA-MB-231 breast = tested on: MDA-MB-231 breast
OVCAR-8 ovarian = tested on: OVCAR-8 ovarian
COLO 205 colon = tested on: COLO 205 colon
U251 CNS = tested on: U251 CNS
MDA-MB-435 = tested on: MDA-MB-435
UACC-257 melanoma = tested on: UACC-257 melanoma
NCI-H522 lung = tested on: NCI-H522 lung
UACC-62 melanoma = tested on: UACC-62 melanoma
SK-OV-3 ovarian = tested on: SK-OV-3 ovarian
RPMI-8226 leukemia = tested on: RPMI-8226 leukemia
SR leukemia = tested on: SR leukemia
HT29 colon = tested on: HT29 colon
SF-539 CNS = tested on: SF-539 CNS
ACHN renal = tested on: ACHN renal
IGROV1 ovarian = tested on: IGROV1 ovarian
OVCAR-3 ovarian = tested on: OVCAR-3 ovarian
CAKI-1 renal = tested on: CAKI-1 renal
NCI-H460 lung = tested on: NCI-H460 lung
SK-MEL-5 melanoma = tested on: SK-MEL-5 melanoma
SNB-19 CNS = tested on: SNB-19 CNS
DU-145 prostate = tested on: DU-145 prostate
M14 melanoma = tested on: M14 melanoma
SK-MEL-2 melanoma = tested on: SK-MEL-2 melanoma
OVCAR-5 ovarian = tested on: OVCAR-5 ovarian
SNB-75 CNS = tested on: SNB-75 CNS
T-47D breast = tested on: T-47D breast

CC(NCCC(c1ccccc1)c1ccccc1)c1ccccc1 (stereo unspecified) was tested, and the GI50 (HOP-62 NSCLC) was 1.36 µM, the TGI (HOP-62 NSCLC) was 3.31 µM and the GI50 (SW-620 colon) was 1.71 µM. For the same compound, the TGI (SW-620 colon) was 3.42 µM, the GI50 (CCRF-CEM leukemia) was 2.38 µM and the TGI (CCRF-CEM leukemia) was 8.73 µM. For the same compound, the GI50 (MOLT-4 leukemia) was 2.59 µM, the TGI (MOLT-4 leukemia) was 7.15 µM and the GI50 (NCI-H23 lung) was 2.03 µM. It also gave a TGI (NCI-H23 lung) of 7.81 µM, a GI50 (EKVX NSCLC) of 3.63 µM and a TGI (EKVX NSCLC) of 16.5 µM. It also gave a GI50 (HCT-15 colon) of 2.57 µM, a TGI (HCT-15 colon) of 7.83 µM and a GI50 (TK-10 renal) of 1.93 µM. For the same compound, the TGI (TK-10 renal) was 4 µM, the GI50 (PC-3 prostate) was 2.1 µM and the TGI (PC-3 prostate) was 6.96 µM. The GI50 (SF-295 CNS) was 1.73 µM, the TGI (SF-295 CNS) was 3.86 µM and the GI50 (A498 renal) was 1.45 µM. For the same compound, the TGI (A498 renal) was 3.93 µM, the GI50 (SN12C renal) was 2.42 µM and the TGI (SN12C renal) was 9.13 µM. The GI50 (NCI-H226 lung) was 2.78 µM, the TGI (NCI-H226 lung) was 13.8 µM and the GI50 (HL-60(TB) leukemia) was 2.13 µM. It also gave a TGI (HL-60(TB) leukemia) of 4.19 µM, a GI50 (MCF7 breast) of 1.8 µM and a TGI (MCF7 breast) of 3.63 µM. The GI50 (MALME-3M melanoma) was 1.75 µM, the TGI (MALME-3M melanoma) was 3.44 µM and the GI50 (BT-549 breast) was 5.42 µM. The TGI (BT-549 breast) was 17.6 µM, the GI50 (HOP-92 NSCLC) was 1.05 µM and the TGI (HOP-92 NSCLC) was 3.56 µM. It also gave a GI50 (HS 578T breast) of 4.04 µM, a TGI (HS 578T breast) of 23.9 µM and a GI50 (KM12 colon) of 2.06 µM. For the same compound, the TGI (KM12 colon) was 4.85 µM, the GI50 (UO-31 renal) was 2.19 µM and the TGI (UO-31 renal) was 12.1 µM. For the same compound, the GI50 (HCC-2998 colon) was 1.6 µM, the TGI (HCC-2998 colon) was 3.07 µM and the GI50 (SK-MEL-28 melanoma) was 1.76 µM. The TGI (SK-MEL-28 melanoma) was 3.26 µM, the GI50 (OVCAR-4 ovarian) was 2.15 µM and the TGI (OVCAR-4 ovarian) was 6.66 µM. It also gave a GI50 (LOX IMVI melanoma) of 1.59 µM, a TGI (LOX IMVI melanoma) of 2.93 µM and a GI50 (786-0 renal) of 1.81 µM. The TGI (786-0 renal) was 3.67 µM, the GI50 (HCT-116 colon) was 1.66 µM and the TGI (HCT-116 colon) was 3.08 µM. It also gave a GI50 (NCI/ADR-RES ovarian) of 2.77 µM, a TGI (NCI/ADR-RES ovarian) of 7.68 µM and a GI50 (SF-268 CNS) of 4.48 µM. It also gave a TGI (SF-268 CNS) of 17.5 µM, a GI50 (A549 NSCLC) of 3.33 µM and a TGI (A549 NSCLC) of 12.8 µM. It also gave a GI50 (K-562 leukemia) of 2.42 µM, a TGI (K-562 leukemia) of 5.23 µM and a GI50 (RXF 393 renal) of 1.46 µM. It also gave a TGI (RXF 393 renal) of 3.23 µM, a GI50 (MDA-MB-231 breast) of 2.17 µM and a TGI (MDA-MB-231 breast) of 5.74 µM. The GI50 (OVCAR-8 ovarian) was 1.7 µM, the TGI (OVCAR-8 ovarian) was 3.37 µM and the GI50 (COLO 205 colon) was 1.53 µM. For the same compound, the TGI (COLO 205 colon) was 2.85 µM, the GI50 (U251 CNS) was 1.59 µM and the TGI (U251 CNS) was 2.99 µM. The GI50 (MDA-MB-435) was 2.54 µM, the TGI (MDA-MB-435) was 7.76 µM and the GI50 (UACC-257 melanoma) was 1.65 µM. The TGI (UACC-257 melanoma) was 4.02 µM, the GI50 (NCI-H522 lung) was 1.81 µM and the TGI (NCI-H522 lung) was 3.48 µM. For the same compound, the GI50 (UACC-62 melanoma) was 1.62 µM, the TGI (UACC-62 melanoma) was 3.57 µM and the GI50 (SK-OV-3 ovarian) was 1.65 µM. The TGI (SK-OV-3 ovarian) was 3.81 µM, the GI50 (RPMI-8226 leukemia) was 1.92 µM and the TGI (RPMI-8226 leukemia) was 4.83 µM. For the same compound, the GI50 (SR leukemia) was 1.92 µM, the TGI (SR leukemia) was 5.26 µM and the GI50 (HT29 colon) was 1.72 µM. The TGI (HT29 colon) was 3.39 µM, the GI50 (SF-539 CNS) was 2.92 µM and the TGI (SF-539 CNS) was 9.01 µM. The GI50 (ACHN renal) was 3.32 µM, the TGI (ACHN renal) was 12 µM and the GI50 (IGROV1 ovarian) was 2.89 µM. It also gave a TGI (IGROV1 ovarian) of 13.5 µM, a GI50 (OVCAR-3 ovarian) of 3.21 µM and a TGI (OVCAR-3 ovarian) of 10.7 µM. For the same compound, the GI50 (CAKI-1 renal) was 2.73 µM, the TGI (CAKI-1 renal) was 9.52 µM and the GI50 (NCI-H460 lung) was 1.71 µM. The TGI (NCI-H460 lung) was 3.26 µM, the GI50 (SK-MEL-5 melanoma) was 1.6 µM and the TGI (SK-MEL-5 melanoma) was 2.95 µM. It also gave a GI50 (SNB-19 CNS) of 1.56 µM, a TGI (SNB-19 CNS) of 3.44 µM and a GI50 (DU-145 prostate) of 3.09 µM. The TGI (DU-145 prostate) was 9.76 µM, the GI50 (M14 melanoma) was 1.73 µM and the TGI (M14 melanoma) was 3.31 µM. It also gave a GI50 (SK-MEL-2 melanoma) of 1.9 µM, a TGI (SK-MEL-2 melanoma) of 3.77 µM and a GI50 (OVCAR-5 ovarian) of 2.88 µM. For the same compound, the TGI (OVCAR-5 ovarian) was 11.4 µM, the GI50 (SNB-75 CNS) was 2.79 µM and the TGI (SNB-75 CNS) was 10.9 µM. It also gave a GI50 (T-47D breast) of 1.59 µM and a TGI (T-47D breast) of 3.29 µM.
